Laboratory results: ChEMBL document CHEMBL1135137, “Synthesis and pharmacological characterization of a potent, orally active p38 kinase inhibitor” (Bioorg Med Chem Lett, 2002)
Converted amounts (≈) assume the structure as drawn. Values belong to the compound of their own block, whether it stands above or below them.

Assays:
Mus musculus [1] = experiment: Effect on LPS-induced TNF-alpha production in mice at 10 mg/kg peroral dose; type: functional; conditions: route oral
Mus musculus [2] = experiment: Effect on LPS-induced TNF-alpha production in mice at 30 mg/kg peroral dose; type: functional; conditions: route oral
Mus musculus [3] = experiment: Effect in murine model of arthritis onset in mice immunized with bovine type II collagen at 50 mg/kg; Number of paws affected; type: functional
Mus musculus [4] = experiment: Effect in murine model of arthritis onset in mice immunized with bovine type II collagen at 50 mg/kg; Histopathology in inflammatory cell; type: functional
Mus musculus [5] = experiment: Effect in murine model of arthritis onset in mice immunized with bovine type II collagen at 50 mg/kg; Histopathology in interstitial edema; type: functional
Mus musculus [6] = species: Mus musculus; experiment: animal or person; conditions: po, read-out: Inhibition
Mus musculus [7] = species: Mus musculus; experiment: animal or person; conditions: po, read-out: Inhibition; remark: listed apart in the source
Mus musculus [8] = species: Mus musculus; experiment: animal or person; conditions: po, read-out: Inhibition; remark: listed apart in the source
[9] = biological target: Mitogen-activated protein kinase 14 (Homo sapiens, UniProt Q16539); experiment: Inhibitory activity against Mitogen-activated protein kinase p38 alpha 2
SW1353 = experiment: TNF-alpha-induced IL-6 production in SW1353 cells; type: functional, cell-based; conditions: Homo sapiens
[10] = Solubility at pH 2.0; type: physicochemical; conditions: buffer
Mus musculus [11] = experiment: Percent inhibition of TNF-alpha-induced IL-6 production at 50 mg/kg peroral dose in mice; type: functional; conditions: route oral
[12] = Solubility at pH 7.5; type: physicochemical; conditions: buffer
Mus musculus [13] = experiment: Percent inhibition of TNF-alpha-induced IL-6 production at 25 mg/kg peroral dose in mice; type: functional; conditions: route oral
Mus musculus [14] = experiment: Percent inhibition of TNF-alpha-induced IL-6 production at 10 mg/kg peroral dose in mice; type: functional; conditions: route oral
Mus musculus [15] = experiment: Percent inhibition of TNF-alpha-induced IL-6 production at 100 mg/kg peroral dose in mice; type: functional; conditions: route oral
[16] = biological target: Epidermal growth factor receptor (Homo sapiens) (UniProt P00533); experiment: Inhibition of Epidermal growth factor receptor at 10 uM
[17] = biological target: Receptor tyrosine-protein kinase erbB-2 (Homo sapiens, UniProt P04626); experiment: Inhibition of human epidermal growth factor receptor-2
Mus musculus [18] = experiment: Effect on LPS-induced TNF-alpha production in mice at 50 mg/kg peroral dose; type: functional; conditions: route oral
Mus musculus [19] = experiment: Effect in murine model of arthritis onset in mice immunized with bovine type II collagen at 10 mg/kg; Number of paws affected; type: functional
Mus musculus [20] = experiment: Effect in murine model of arthritis onset in mice immunized with bovine type II collagen at 3 mg/kg; Number of paws affected; type: functional
Mus musculus [21] = experiment: Effect in murine model of arthritis onset in mice immunized with bovine type II collagen at 30 mg/kg; Number of paws affected; type: functional
Mus musculus [22] = experiment: Effect in murine model of arthritis onset in mice immunized with bovine type II collagen at 10 mg/kg; Histopathology in inflammatory cell; type: functional
Mus musculus [23] = experiment: Effect in murine model of arthritis onset in mice immunized with bovine type II collagen at 10 mg/kg; Histopathology in interstitial edema; type: functional
Mus musculus [24] = experiment: Effect in murine model of arthritis onset in mice immunized with bovine type II collagen at 30 mg/kg; Histopathology in inflammatory cell; type: functional
Mus musculus [25] = experiment: Effect in murine model of arthritis onset in mice immunized with bovine type II collagen at 30 mg/kg; Histopathology in interstitial edema; type: functional
Mus musculus [26] = experiment: Percentage inhibition of LPS-induced TNF-alpha production in mice at 10 mg/kg peroral dose; type: functional; conditions: route oral
Mus musculus [27] = experiment: Effect in murine model of arthritis onset in mice immunized with bovine type II collagen at 3 mg/kg; Histopathology in interstitial edema; type: functional
Mus musculus [28] = experiment: Percentage inhibition of LPS-induced TNF-alpha production in mice at 50 mg/kg peroral dose; type: functional; conditions: route oral
Mus musculus [29] = experiment: Effect on LPS-induced TNF-alpha production in mice at 20 mg/kg peroral dose; type: functional; conditions: route oral
[30] = biological target: Mitogen-activated protein kinase 11 (Homo sapiens, UniProt Q15759); experiment: Inhibition of Mitogen-activated protein kinase p38 beta
[31] = biological target: Mitogen-activated protein kinase 3 (Homo sapiens) (UniProt P27361); experiment: Inhibition of Mitogen-activated protein kinase 3 at 5 uM
Mus musculus [32] = experiment: Effect in murine model of arthritis onset in mice immunized with bovine type II collagen at 3 mg/kg; Histopathology in inflammatory cell; type: functional
Mus musculus [33] = experiment: Percentage inhibition of LPS-induced TNF-alpha production in mice at 20 mg/kg peroral dose; type: functional; conditions: route oral
[34] = biological target: Protein kinase C beta type (Homo sapiens) (UniProt P05771); experiment: Inhibition of Protein kinase C beta at 10 uM
[35] = biological target: Protein kinase C alpha type (Homo sapiens) (UniProt P17252); experiment: Inhibition of Protein kinase C alpha at 10 uM
[36] = biological target: cAMP-dependent protein kinase (PKA) (Homo sapiens) (UniProt P22694+P17612+P22612); experiment: Inhibition of Protein kinase A at 10 uM; type: protein assay
[37] = biological target: Protein kinase C gamma type (Homo sapiens) (UniProt P05129); experiment: Inhibition of Protein kinase C gamma at 10 uM
[38] = biological target: Mitogen-activated protein kinase 8 (Homo sapiens) (UniProt P45983); experiment: Inhibition of c-Jun N-terminal kinase 1 at 0.5 uM
[39] = biological target: Tyrosine-protein kinase Fyn (Homo sapiens) (UniProt P06241); experiment: Inhibition of p59 Fyn tyrosine kinase at 10 uM
[40] = biological target: Tyrosine-protein kinase Lck (Homo sapiens) (UniProt P06239); experiment: Inhibition of p59 Lck tyrosine kinase at 10 uM
[41] = biological target: Tyrosine-protein kinase ABL (Homo sapiens) (UniProt P00519+P42684); experiment: Inhibition of Abl tyrosine kinase at 5 uM; type: protein assay

Mitogen-activated protein kinase 14, sequence (Q16539 whole entry): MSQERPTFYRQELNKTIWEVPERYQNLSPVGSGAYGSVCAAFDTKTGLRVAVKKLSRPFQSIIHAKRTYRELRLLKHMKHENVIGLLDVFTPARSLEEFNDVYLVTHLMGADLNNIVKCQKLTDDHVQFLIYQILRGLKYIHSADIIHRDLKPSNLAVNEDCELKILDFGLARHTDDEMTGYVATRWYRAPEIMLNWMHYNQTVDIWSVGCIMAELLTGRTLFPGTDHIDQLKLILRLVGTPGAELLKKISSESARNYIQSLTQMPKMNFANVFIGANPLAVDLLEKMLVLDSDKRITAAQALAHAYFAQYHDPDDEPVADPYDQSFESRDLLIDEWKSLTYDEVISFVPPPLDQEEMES
Mitogen-activated protein kinase 11, sequence (Q15759 whole entry): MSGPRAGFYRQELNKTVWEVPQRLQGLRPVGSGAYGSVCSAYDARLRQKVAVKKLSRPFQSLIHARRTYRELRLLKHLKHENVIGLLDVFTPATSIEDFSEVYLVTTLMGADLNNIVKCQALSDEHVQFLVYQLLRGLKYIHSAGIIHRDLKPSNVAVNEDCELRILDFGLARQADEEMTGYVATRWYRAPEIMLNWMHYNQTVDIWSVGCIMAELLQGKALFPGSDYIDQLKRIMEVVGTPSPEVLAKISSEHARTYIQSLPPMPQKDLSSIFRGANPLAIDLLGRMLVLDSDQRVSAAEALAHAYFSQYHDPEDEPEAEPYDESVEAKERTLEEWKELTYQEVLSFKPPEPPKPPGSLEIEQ
Mitogen-activated protein kinase 8 (Homo sapiens), sequence (P45983 whole entry): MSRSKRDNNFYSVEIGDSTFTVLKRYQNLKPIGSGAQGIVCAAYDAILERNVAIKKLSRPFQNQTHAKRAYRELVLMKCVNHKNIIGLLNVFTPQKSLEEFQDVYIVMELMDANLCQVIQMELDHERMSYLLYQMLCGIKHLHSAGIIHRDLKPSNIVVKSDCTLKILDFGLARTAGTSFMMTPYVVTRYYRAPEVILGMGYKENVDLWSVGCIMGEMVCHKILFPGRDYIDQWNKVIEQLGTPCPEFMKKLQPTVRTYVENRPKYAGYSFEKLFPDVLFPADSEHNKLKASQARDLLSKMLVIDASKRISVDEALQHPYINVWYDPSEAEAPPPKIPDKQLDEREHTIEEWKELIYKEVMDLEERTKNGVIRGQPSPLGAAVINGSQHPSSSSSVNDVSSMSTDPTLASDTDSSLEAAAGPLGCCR
Epidermal growth factor receptor (Homo sapiens), sequence (P00533 whole entry): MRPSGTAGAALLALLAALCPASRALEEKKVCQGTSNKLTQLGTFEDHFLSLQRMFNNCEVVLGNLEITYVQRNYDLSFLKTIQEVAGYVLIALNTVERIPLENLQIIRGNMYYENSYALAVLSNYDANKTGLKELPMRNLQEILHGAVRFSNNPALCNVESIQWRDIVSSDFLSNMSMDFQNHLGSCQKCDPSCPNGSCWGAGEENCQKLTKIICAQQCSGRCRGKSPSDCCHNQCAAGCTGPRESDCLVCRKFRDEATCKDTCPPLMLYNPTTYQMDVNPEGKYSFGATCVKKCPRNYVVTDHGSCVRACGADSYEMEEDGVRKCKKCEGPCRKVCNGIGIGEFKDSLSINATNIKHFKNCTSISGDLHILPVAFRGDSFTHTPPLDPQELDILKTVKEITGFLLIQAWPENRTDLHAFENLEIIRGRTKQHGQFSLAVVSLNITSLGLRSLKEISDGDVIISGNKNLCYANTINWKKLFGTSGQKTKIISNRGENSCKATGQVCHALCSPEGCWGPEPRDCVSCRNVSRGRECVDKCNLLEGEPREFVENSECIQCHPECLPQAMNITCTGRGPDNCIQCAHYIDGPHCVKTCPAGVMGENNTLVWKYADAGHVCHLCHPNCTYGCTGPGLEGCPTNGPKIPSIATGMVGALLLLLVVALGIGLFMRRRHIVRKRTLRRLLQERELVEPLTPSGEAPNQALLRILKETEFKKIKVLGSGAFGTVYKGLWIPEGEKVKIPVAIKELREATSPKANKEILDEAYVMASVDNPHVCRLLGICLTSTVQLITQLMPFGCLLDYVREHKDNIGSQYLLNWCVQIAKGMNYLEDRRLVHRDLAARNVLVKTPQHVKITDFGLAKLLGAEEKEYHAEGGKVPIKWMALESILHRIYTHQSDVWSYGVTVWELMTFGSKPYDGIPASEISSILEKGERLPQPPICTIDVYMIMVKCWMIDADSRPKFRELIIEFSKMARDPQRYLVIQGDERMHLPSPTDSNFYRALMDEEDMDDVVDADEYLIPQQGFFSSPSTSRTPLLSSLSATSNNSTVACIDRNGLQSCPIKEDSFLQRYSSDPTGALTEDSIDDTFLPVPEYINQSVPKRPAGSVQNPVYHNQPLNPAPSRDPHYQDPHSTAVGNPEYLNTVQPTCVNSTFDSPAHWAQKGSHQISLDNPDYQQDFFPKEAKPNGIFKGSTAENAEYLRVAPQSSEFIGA
Receptor tyrosine-protein kinase erbB-2, sequence (P04626 whole entry): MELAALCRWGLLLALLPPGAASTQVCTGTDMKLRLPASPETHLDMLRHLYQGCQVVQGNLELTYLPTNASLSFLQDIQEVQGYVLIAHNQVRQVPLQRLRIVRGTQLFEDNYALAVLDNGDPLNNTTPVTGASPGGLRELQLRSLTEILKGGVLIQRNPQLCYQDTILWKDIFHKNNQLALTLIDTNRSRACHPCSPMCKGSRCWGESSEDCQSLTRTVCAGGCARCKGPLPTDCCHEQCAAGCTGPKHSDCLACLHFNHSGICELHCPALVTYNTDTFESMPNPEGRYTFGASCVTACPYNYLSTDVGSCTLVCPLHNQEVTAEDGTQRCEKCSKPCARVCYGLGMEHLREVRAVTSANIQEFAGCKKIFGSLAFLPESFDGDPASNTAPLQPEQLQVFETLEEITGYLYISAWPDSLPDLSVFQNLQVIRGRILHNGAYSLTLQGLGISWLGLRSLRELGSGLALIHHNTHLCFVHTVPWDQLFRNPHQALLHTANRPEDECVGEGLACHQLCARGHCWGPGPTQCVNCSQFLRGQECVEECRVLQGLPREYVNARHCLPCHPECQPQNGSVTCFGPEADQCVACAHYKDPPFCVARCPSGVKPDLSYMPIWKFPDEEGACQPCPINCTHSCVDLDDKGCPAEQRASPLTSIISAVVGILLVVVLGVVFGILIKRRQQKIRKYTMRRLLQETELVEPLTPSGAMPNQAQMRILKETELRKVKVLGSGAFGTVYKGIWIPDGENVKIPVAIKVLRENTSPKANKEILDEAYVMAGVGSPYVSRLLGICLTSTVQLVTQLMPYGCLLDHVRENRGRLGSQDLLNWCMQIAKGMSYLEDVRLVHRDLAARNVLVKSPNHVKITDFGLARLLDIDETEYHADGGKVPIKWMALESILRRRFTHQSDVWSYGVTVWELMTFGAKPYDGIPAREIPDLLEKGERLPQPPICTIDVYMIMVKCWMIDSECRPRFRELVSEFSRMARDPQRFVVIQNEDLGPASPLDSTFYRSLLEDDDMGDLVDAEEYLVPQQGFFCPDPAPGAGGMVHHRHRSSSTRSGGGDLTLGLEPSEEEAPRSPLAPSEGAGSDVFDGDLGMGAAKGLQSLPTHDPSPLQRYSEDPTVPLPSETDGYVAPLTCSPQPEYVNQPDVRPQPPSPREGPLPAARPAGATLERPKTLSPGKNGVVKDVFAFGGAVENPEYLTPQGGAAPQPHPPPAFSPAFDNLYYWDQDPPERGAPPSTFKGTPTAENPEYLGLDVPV
Tyrosine-protein kinase Lck (Homo sapiens), sequence (P06239 2-509 limits assumed): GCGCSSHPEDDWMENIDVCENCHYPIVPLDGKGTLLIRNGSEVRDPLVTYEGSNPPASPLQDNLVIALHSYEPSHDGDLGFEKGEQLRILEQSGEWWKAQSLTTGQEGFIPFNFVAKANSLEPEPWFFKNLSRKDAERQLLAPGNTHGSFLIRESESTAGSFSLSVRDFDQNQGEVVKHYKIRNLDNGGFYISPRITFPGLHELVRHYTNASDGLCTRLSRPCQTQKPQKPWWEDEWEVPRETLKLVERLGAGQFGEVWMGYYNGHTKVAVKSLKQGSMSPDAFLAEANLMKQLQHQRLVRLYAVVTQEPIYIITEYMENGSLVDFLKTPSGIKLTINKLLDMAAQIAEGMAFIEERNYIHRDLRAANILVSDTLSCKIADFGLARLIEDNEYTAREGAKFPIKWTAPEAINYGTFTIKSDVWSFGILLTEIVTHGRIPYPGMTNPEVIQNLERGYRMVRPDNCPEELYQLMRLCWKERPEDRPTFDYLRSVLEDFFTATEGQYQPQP

Compound: C[S+]([O-])c1ccc(-c2nc(-c3ccc(F)cc3)c(-c3ccncc3)[nH]2)cc1 (stereo not given) [SB-203580]
Activity (Mus musculus [1]): 38 ng/mL | Activity (Mus musculus [2]): 13 ng/mL | Activity (Mus musculus [3]): 1 | IC (Mus musculus [4]): 0.63 | IO (Mus musculus [5]): 0.25 | inhibition in vivo at 100 mg/kg (Mus musculus [6]): 80% | inhibition in vivo at 10 mg/kg (Mus musculus [7]): -1.4% | inhibition in vivo at 30 mg/kg (Mus musculus [8]): < 65.4%

IC50 [9]: 0.27 µM
Compound: Cn1nc(C(C)(C)C)cc1NC(=O)Nc1ccc(Oc2ccccc2)cc1

IC50 [9]: 0.087 µM | IC50 (SW1353): 0.057 µM
Compound: Cn1nc(C(C)(C)C)cc1NC(=O)Nc1ccc(Cc2ccc(NC(=O)OC(C)(C)C)cc2)cc1

IC50 [9]: 0.2 µM | IC50 (SW1353): > 2.5 µM
Compound: Cn1nc(C(C)(C)C)cc1NC(=O)Nc1ccc(Cc2ccc(NC(=O)CCC(=O)O)cc2)cc1

IC50 [9]: 0.07 µM
Compound: CC(=O)Nc1ccc(Cc2ccc(NC(=O)Nc3cc(C(C)(C)C)nn3C)cc2)cc1

IC50 [9]: 0.045 µM | IC50 (SW1353): 0.313 µM
Compound: CC(C)CC(=O)Nc1ccc(Oc2ccc(NC(=O)Nc3cc(C(C)(C)C)nn3C)cc2)cc1

IC50 [9]: 0.11 µM
Compound: Cn1nc(C(C)(C)C)cc1NC(=O)Nc1ccc(Oc2ccc(OCc3ccccc3)cc2)cc1

IC50 [9]: 0.26 µM
Compound: Cn1nc(C(C)(C)C)cc1NC(=O)Nc1ccc(OCc2ccncc2)cc1

IC50 [9]: 0.035 µM | IC50 (SW1353): 1.1 µM
Compound: Cn1nc(C(C)(C)C)cc1NC(=O)Nc1ccc(Sc2ccc(O)cc2)cc1

IC50 [9]: 0.054 µM | IC50 (SW1353): 0.162 µM
Compound: CC(C)OC(=O)Nc1ccc(Oc2ccc(NC(=O)Nc3cc(C(C)(C)C)nn3C)cc2)cc1

IC50 [9]: 0.29 µM
Compound: Cn1nc(C(C)(C)C)cc1NC(=O)Nc1ccc(Cc2ccc(N)cc2)cc1

IC50 [9]: 0.057 µM | IC50 (SW1353): 0.235 µM
Compound: CCCOc1ccc(Sc2ccc(NC(=O)Nc3cc(C(C)(C)C)nn3C)cc2)cc1

IC50 [9]: 0.16 µM
Compound: Cc1ccc(Oc2ccc(NC(=O)Nc3cc(C(C)(C)C)nn3C)cc2)cc1

IC50 [9]: 0.069 µM | IC50 (SW1353): > 2.5 µM
Compound: CCCCOc1ccc(Sc2ccc(NC(=O)Nc3cc(C(C)(C)C)nn3C)cc2)cc1

IC50 [9]: 0.037 µM | IC50 (SW1353): 0.17 µM
Compound: CC(C)CC(=O)Nc1ccc(Cc2ccc(NC(=O)Nc3cc(C(C)(C)C)nn3C)cc2)cc1

IC50 [9]: 0.31 µM
Compound: Cn1nc(C(C)(C)C)cc1NC(=O)Nc1ccc(Oc2ccc(N)cc2)cc1

IC50 [9]: 0.183 µM
Compound: Cn1nc(C(C)(C)C)cc1NC(=O)Nc1ccc(Oc2ccc(C(C)(C)C)cc2)cc1

IC50 [9]: 0.42 µM
Compound: Cn1nc(C(C)(C)C)cc1NC(=O)Nc1ccc(Nc2ccncc2)cc1

IC50 [9]: 0.038 µM | IC50 (SW1353): 1.75 µM
Compound: CCC(=O)Nc1ccc(Cc2ccc(NC(=O)Nc3cc(C(C)(C)C)nn3C)cc2)cc1

IC50 [9]: 0.235 µM
Compound: CC(=O)Nc1ccc(Oc2ccc(NC(=O)Nc3cc(C(C)(C)C)nn3C)cc2)cc1

solubility [10]: 77 µg/mL (≈ 171 µM) | IC50 [9]: 0.033 µM | IC50 (SW1353): 0.087 µM | solubility [12]: 95 µg/mL (≈ 210 µM)
Compound: CCOC(=O)Nc1ccc(Oc2ccc(NC(=O)Nc3cc(C(C)(C)C)nn3C)cc2)cc1
inhibition in vivo at 50 mg/kg (Mus musculus [11]): 16%

solubility [10]: 5160 µg/mL (≈ 13000 µM) | IC50 [9]: 0.044 µM | IC50 (SW1353): 0.584 µM | solubility [12]: 322 µg/mL (≈ 814 µM)
Compound: Cn1nc(C(C)(C)C)cc1NC(=O)Nc1ccc(CSc2ccncc2)cc1
inhibition in vivo at 25 mg/kg (Mus musculus [13]): 22% | inhibition in vivo at 50 mg/kg (Mus musculus [11]): < 64% | inhibition in vivo at 10 mg/kg (Mus musculus [14]): -15%

solubility [10]: 1660 µg/mL (≈ 4350 µM) | IC50 [9]: 0.013 µM | IC50 (SW1353): 0.095 µM | solubility [12]: 655 µg/mL (≈ 1720 µM)
Compound: Cn1nc(C(C)(C)C)cc1NC(=O)Nc1ccc(Sc2ccncc2)cc1
inhibition in vivo at 50 mg/kg (Mus musculus [11]): < 77% | inhibition in vivo at 100 mg/kg (Mus musculus [15]): < 90%

IC50 [9]: 0.069 µM | IC50 (SW1353): 1.06 µM
Compound: CCC(=O)Nc1ccc(Oc2ccc(NC(=O)Nc3cc(C(C)(C)C)nn3C)cc2)cc1

IC50 [9]: 0.14 µM
Compound: Cn1nc(C(C)(C)C)cc1NC(=O)Nc1ccc(SCc2ccncc2)cc1

IC50 [9]: 0.43 µM
Compound: Cn1nc(C(C)(C)C)cc1NC(=O)Nc1ccc(CCc2ccncc2)cc1

solubility [10]: 2000 µg/mL (≈ 5500 µM) | inhibition [16]: 17% | IC50 [17]: 0.0042 µM | IC50 [30]: 0.11 µM | inhibition [31]: 8% | inhibition [34]: 5% | inhibition [35]: 0% | inhibition [36]: 7% | inhibition [37]: 21% | IC50 (SW1353): 0.323 µM | inhibition [38]: 2% | inhibition [39]: 20% | inhibition [40]: 8% | inhibition [41]: 3% | solubility [12]: 50 µg/mL (≈ 138 µM)
Compound: Cn1nc(C(C)(C)C)cc1NC(=O)Nc1ccc(Cc2ccncc2)cc1
Activity (Mus musculus [1]): 46.7 ng/mL | Activity (Mus musculus [18]): 5.1 ng/mL | Activity (Mus musculus [19]): 1.9 | Activity (Mus musculus [20]): 1.4 | Activity (Mus musculus [21]): 0.7 | Activity (Mus musculus [22]): 0.78 | Activity (Mus musculus [23]): 0.3 | Activity (Mus musculus [24]): 0.38 | Activity (Mus musculus [25]): 0.2 | inhibition in vivo at 25 mg/kg (Mus musculus [13]): 60% | inhibition in vivo at 10 mg/kg (Mus musculus [26]): -24.5% | inhibition in vivo at 50 mg/kg (Mus musculus [11]): 84% | IO (Mus musculus [27]): 0.33 | inhibition in vivo at 50 mg/kg (Mus musculus [28]): < 86.5% | Activity (Mus musculus [29]): 19.8 ng/mL | IC (Mus musculus [32]): 0.8 | inhibition in vivo at 20 mg/kg (Mus musculus [33]): < 47.1%
